In paper PMC12073635, “Synthesis of Tricyclic and Tetracyclic Lactone Derivatives of Thieno[2,3-b]pyrazine or Thieno[2,3-b]quinoline: Preliminary Antitumor and Antiparasitic Activity Evaluation” (Molecules, 2025):
Entries after “also recorded” stand apart in the source; their conditions may differ.

Tests used:
[1] = system: CaCo-2 (colorectal adenocarcinoma) cells; assay: SRB cell growth inhibition assay, CaCo-2; type: cell-based, human; conditions: Homo sapiens, Caco-2, 72 h, mean ± standard deviation
Description: (§1) The antitumor potential of the Sonogashira coupling products 2, tricyclic lactones 3 and 5, and tetracyclic lactones 7 was evaluated using the sulforhodamine B (SRB) assay against five human tumor cell lines: colorectal adenocarcinoma (CaCo-2), breast adenocarcinoma (MCF-7), gastric adenocarcinoma (AGS), cervical carcinoma (HeLa), and non-small cell lung cancer (NCI-H460). A primary pig liver cell culture (PLP2) was used to assess the toxicity of compounds.
(§2) The human tumor cell lines used were CaCo-2 (colorectal adenocarcinoma), MCF-7 (breast adenocarcinoma), AGS (gastric adenocarcinoma), HeLa (cervical carcinoma), NCI-H460 (lung carcinoma). Non-tumor cell lines were also tested: PLP2 (primary pig liver culture). All the cell lines were maintained in RPMI-1640 medium supplemented with 10% fetal bovine serum, glutamine (2 mM), penicillin (100 U/mL), and streptomycin ([…]), with the exception of PLP2, which was maintained in DMEM medium supplemented with fetal bovine serum (10%), glutamine and antibiotics. The culture flasks were incubated at 37 °C and with 5% CO2, under a humid atmosphere. The cells were used only when they had 70 to 80% confluence. A known mass of each compound was dissolved in DMSO/H2O (1:1, 1 mL), in order to obtain the stock solutions with a concentration of 1 mM. […] Each compound concentration (10 μL) was incubated with the cell suspension (190 μL) of the cell lines tested in 96-well microplates for 72 h. The microplates were incubated at 37 °C and with 5% CO2 in a humid atmosphere after checking the adherence of the cells. All cell lines were tested at a concentration of 10,000 cells/well. After the incubation period, the cells were treated: TCA (10% w/v; 100 μL) was previously cooled, and plates were incubated for 1 h at 4 °C, washed with water, and, after drying, a SRB solution (0.057%, m/v; 100 μL) was added and left to stand at room temperature for 30 min. To remove non-adhered SRB, plates were washed three times with a solution of acetic acid (1% v/v) and placed to dry. Finally, an adhered SRB was solubilized with Tris (10 mM, 200 μL) and the absorbance at a wavelength of 540 nm was read in the Biotek ELX800 microplate reader. The results obtained by the SRB assay were expressed regarding the concentration compounds that can inhibit cell growth by 50%—GI50. Doxorubicin was used as a positive control.

[2] = system: T. brucei Lister 427 bloodstream forms; assay: Resazurin-based anti-T. brucei assay; type: cell-based, Trypanosoma brucei; conditions: 72 h; for T. brucei % of Activity ± ST.DEV (Single Dose 20 μM): single dose 20 μM, no activity = less than 20%
Description: (§3) The antiparasitic activity of compounds 2c–g, 3a, 5a and 7 was evaluated at a single concentration of 20 μM, against Trypanosoma brucei (T. brucei) and Leishmania infantum (L. infantum) promastigotes. The results are shown in Table 9 together with the cytotoxicity data (CC50) in THP-1–derived macrophages cells.
T. brucei Lister 427 bloodstream forms were grown in a humidified incubator at 37 °C, 5% CO2 in complete HMI-9 medium 1 supplemented with 10% heat-inactivated Fetal Bovine Serum (FBS) and 100 UI/mL penicillin/streptomycin. Parasites maintenance was performed in T25 ventilated flasks by subpassage at a concentration of 1 × 10^4/mL every 2 days on T25 ventilated flasks.
The efficacy of compounds against T. brucei bloodstream forms was evaluated using a modified resazurin-based assay previously described in the literature. Parasites were added to 100 µL of serial dilutions of compounds in supplemented complete medium at a cell density of 5 × 10^3/mL for. As a quality control, a dose–response curve for the antitrypanosomal pentamidine was included in all the assays. The final volume of the assay is 200 µL/well. Each condition was carried out in duplicate. Following 72 h incubation at the specific conditions for T. brucei, 20 µL of a 0.5 mM resazurin solution was added and plates were incubated for a further 4 h under the same conditions. Fluorescence was measured at 544 nm and 590 nm excitation and emission wavelength, respectively, using a Synergy 2 Multi-Mode Reader (Biotek, Winooski, VT, USA). Results were shown as % of parasite growth inhibition compared to control (untreated parasites) and represent the average of at least three independent experiments. The effect was evaluated by the determination of the IC50 value (concentration required to inhibit growth in 50%) and calculated by non-linear regression curves using GraphPad Prism version 8.1.1 for Windows (GraphPad Software, San Diego CA, USA).

[3] = MTT cytotoxicity in THP-1-derived macrophages; type: cell-based, human; conditions: human, THP-1-derived macrophages (PMA-differentiated); MTT, 72 h, tested 100 to 12.5 μM; read-out: CC50 Interval in THP-1-Derived Macrophages
Description: (§4) Human leukemia cell line, THP-1 (ATCC® TIB-202™, Manassas, VA, USA) was cultured in RPMI-1640 medium supplemented with 10% heat-inactivated Fetal Bovine Serum (FBS), 2 mM L-glutamine, 100 UI/mL penicillin/streptomycin, 20 mM HEPES. The cell line was maintained in a humidified incubator at 37 °C and 5% CO2 by subculture every three days in 20 mL of media at a concentration of 1 × 10^5/mL in a T75 flask. All cell culture reagents were purchased from Lonza-Bioscience (Morrisville, NC, USA).
(§5) The cytotoxicity effect of compounds on THP-1-derived macrophages was assessed by the colorimetric MTT assay (3-(4,5-dimethylthiazol-2-yl)-2,5-diphenyl tetrazolium bromide). Briefly, THP-1 cells were suspended in RPMI complete medium at a density of 1 × 10^6 cells/mL and 100 μL/well were seeded in a 96-well plate and were differentiated into macrophages by addition of 40 ng/mL of phorbol-myristate 13-acetate (PMA, Sigma, Saint Louis, MI, USA) for 24 h followed by replacement with fresh medium for more 24 h. Subsequently, cells were incubated with 100 μL of compounds ranging from 100 to 12.5 μM after dilution in the RPMI complete medium. Each condition was carried out in quadruplicate. After 72 h of incubation at 37 °C 5% CO2, the medium was removed and 200 μL of 0.5 mg/mL MTT solution diluted in RPMI was added. Plates were incubated for an additional 4 h. Then 160 μL of media was removed and the same volume of 2-propanol was added. Absorbance was read at 570 nm using a Synergy 2 Multi-Mode Reader (Biotek, Winooski, VT, USA). Cytotoxicity was evaluated by the determination of the CC50 value (drug concentration that reduced the percentage of viable cells in 50%) and calculated by non-linear regression analysis using GraphPad Prism version 8.1.1 for Windows (GraphPad Software, San Diego, CA, USA). The results represent the average of at least three independent experiments. For each compound, the Selectivity Index (SI) was calculated as the ratio between cytotoxicity in THP-1 (CC50, 72 h) and activity against parasites (IC50, 72 h).

[4] = system: L. infantum MHOM/MA/67/ITMAP-263 promastigotes; assay: Resazurin-based assay against L. infantum promastigotes; type: cell-based, Leishmania infantum; conditions: 72 h; for L. infantum % of Activity ± ST.DEV (Single Dose 20 μM): single dose 20 μM, no activity = less than 20%
Description: as §3
L. infantum MHOM/MA/67/ITMAP-263 promastigotes forms were grown at 27 °C, in complete RPMI-1640 medium supplemented with 10% heat-inactivated Fetal Bovine Serum (FBS), 2 mM L-glutamine, 100 UI/mL penicillin/streptomycin, 20 mM HEPES. Parasites maintenance was performed in T25 non-ventilated flasks by subpassage at a concentration of 1 × 10^6/mL every 5 days on T25 non-ventilated flasks.
The compounds’ efficacy against L. infantum promastigotes was evaluated using a resazurin-based assay. Parasites were added to 100 µL of serial dilutions of compounds in supplemented complete medium at a cell density of 5 × 10^5/mL. As a quality control, a dose–response curve to the antileishmanial drug miltefosine was included in all the assays. The final volume of the assay was 200 µL/well. Each condition was carried out in duplicate. Following 72 h of incubation at the specific conditions for L. infantum, 20 µL of a 0.5 mM resazurin solution was added, and the plates were incubated for a further 4 h under the same conditions. The methodology to obtain the results was the same described in Section 3.2.2. for T. brucei.

[5] = system: HeLa (cervical carcinoma) cells; assay: SRB cell growth inhibition assay, HeLa; type: cell-based; conditions: Homo sapiens, 72 h, mean ± standard deviation
Description: as §1, §2

[6] = system: AGS (gastric adenocarcinoma) cells; assay: SRB cell growth inhibition assay, AGS; type: cell-based; conditions: Homo sapiens, 72 h, mean ± standard deviation
Description: as §1, §2

[7] = system: MCF-7 (breast adenocarcinoma) cells; assay: SRB cell growth inhibition assay, MCF-7; type: cell-based, human; conditions: Homo sapiens, MCF7, 72 h, mean ± standard deviation
Description: as §1, §2

[8] = system: NCI-H460 (non-small cell lung cancer) cells; assay: SRB cell growth inhibition assay, NCI-H460; type: cell-based; conditions: Homo sapiens, 72 h, mean ± standard deviation
Description: as §1, §2

[9] = SRB assay, toxicity in non-tumor PLP2 cells; type: cell-based, pig; conditions: PLP2 primary pig liver cells (non-tumor); non-tumor primary pig liver cells, SRB assay, 72 h, mean ± standard deviation
Description: as §1, §2

[10] = system: THP-1-derived macrophages; assay: MTT cytotoxicity in THP-1-derived macrophages; type: cell-based, human
Description: as §4, §5

SMILES | GI50 [1] | T. brucei % of Activity ± ST.DEV (Single Dose 20 μM) [2] | CC50 at 72 h [3] | L. infantum % of Activity ± ST.DEV (Single Dose 20 μM) [4] | GI50 [5] | GI50 [6] | GI50 [7] | GI50 [8] | GI50 at 72 h [9] | IC50 ([4]; Leishmania infantum, dose-response) | IC50 ([2]; dose-response) | T. brucei IC50 ([2]; dose-response) | IC50 ([2]; Trypanosoma brucei, dose-response) | cytotoxicity in THP-1-derived macrophages (in words) [10]
COC(=O)c1sc2nccnc2c1C#Cc1ccc(OC)cc1 [Compound 2d, Methyl 7-[(4-methoxyphenyl)ethynyl]thieno[2,3-b]pyrazine-6-carboxylate] | 79.5 ± 3.58 µM | no activity * | > 100 µM | no activity * | 62.3 ± 2.98 µM | 59.3 ± 1.97 µM | 67.9 ± 2.47 µM | 82.5 ± 5.35 µM | > 125 µM |  |  |  |  | 
O=c1oc(-c2ccc(C(F)(F)F)cc2)c(-c2ccc(C(F)(F)F)cc2)c2c1sc1nc3ccccc3cc12 [Compound 7e, 3,4-Bis(4-(trifluoromethyl)phenyl)-1H-pyrano[4’,3’:4,5]thieno[2,3-b]quinolin-1-one] |  | no activity * | 25 to 50 µM | no activity * |  |  |  |  |  |  |  |  |  | 
COC(=O)c1sc2nccnc2c1C#Cc1ccc(F)cc1 [Compound 2c, Methyl 7-[(4-fluorophenyl)ethynyl]-thieno[2,3-b]pyrazine-6-carboxylate] | 52.1 ± 0.89 µM | no activity * | > 100 µM | no activity * | 48.3 ± 1.66 µM | 70.7 ± 4.72 µM | 51.8 ± 1.07 µM | 67.2 ± 3.05 µM | > 125 µM |  |  |  |  | 
COC(=O)c1sc2nccnc2c1C#Cc1ccc(C)cc1 [Compound 2e, Methyl 7-(p-tolylethynyl)thieno[2,3-b]pyrazine-6-carboxylate] | 93 ± 7.23 µM |  | > 100 µM | no activity * | 76.9 ± 6.55 µM | 89.2 ± 5.33 µM | 95.8 ± 8.08 µM | 102 ± 8.13 µM | > 125 µM |  |  |  |  | 
O=c1oc(-c2ccccc2)c(-c2ccccc2)c2c1sc1nc3ccccc3cc12 [Compound 7a, 3,4-Diphenyl-1H-pyrano[4′,3′:4,5]thieno[2,3-b]quinolin-1-one] | 75 ± 4.49 µM |  | < 12.5 µM | no activity * | 78.9 ± 6.06 µM | 93.5 ± 5.37 µM | 97.9 ± 6.31 µM | 93.9 ± 3.18 µM | > 125 µM |  |  |  |  | 
COc1ccc(-c2oc(=O)c3sc4nc5ccccc5cc4c3c2-c2ccc(OC)cc2)cc1 [Compound 7d, 3,4-Bis(4-methoxyphenyl)-1H-pyrano[4′,3′:4,5]thieno[2,3-b]quinolin-1-one] | 90 ± 3.29 µM | no activity * | < 12.5 µM | no activity * | 75.2 ± 6.72 µM | 88.6 ± 5.08 µM | 91.2 ± 8.71 µM | 97.8 ± 6.14 µM | > 125 µM |  |  |  |  | 
CCCCc1oc(=O)c2sc3nc4ccccc4cc3c2c1CCCC [Compound 7b, 3,4-Dibutyl-1H-pyrano[4′,3′:4,5]thieno[2,3-b]quinolin-1-one] | 91.1 ± 2.46 µM | no activity * | 12.5 to 50 µM |  | 82.8 ± 8.02 µM | 99.8 ± 4.94 µM | 101 ± 7.33 µM | 109 ± 9.16 µM | > 125 µM | 19 µM |  |  |  | 
O=c1oc(-c2ccccc2)c(Cl)c2c1sc1nccnc12 [Compound 5a, 9-Chloro-8-phenyl-6H-pyrano[4′,3′:4,5]thieno[2,3-b]pyrazin-6-one] | 41.7 ± 1.02 µM |  | 50 to 100 µM |  | 35.8 ± 2.08 µM | 36.3 ± 1.47 µM | 52.6 ± 3.18 µM | 51.5 ± 4.18 µM | 66.8 ± 3.58 µM |  | 10.8 µM | low μM range | < 11 µM | some level of toxicity; also recorded: some degree of cytotoxicity
COC(=O)c1sc2nccnc2c1C#Cc1ccsc1 [Compound 2g, Methyl 7-(thiophen-3-ylethynyl)thieno[2,3-b]pyrazine-6-carboxylate] | 30.7 ± 2.35 µM | no activity * | > 100 µM | no activity * | 36.4 ± 2.85 µM | 46.1 ± 1.77 µM | 60 ± 3.19 µM | 62.1 ± 3.05 µM | 90.5 ± 6.47 µM |  |  |  |  | 
